Results on 16 compounds are retold here after patent US20260356826A1, “SALTS OF AMINO QUINAZOLINE DERIVATIVES” (CHIESI FARMACEUTICI S.P.A., priority 2023, published 2026).

Series [1] is described as follows: Dissolution in Fasted State Simulated Gastric Fluid (FaSSGF), manual experiment, 37 °C. In kind it is physicochemical. The conditions noted are these: for Solubility: 37 °C. As to the method: The dissolution in Fasted State Simulated Gastric Fluid (FaSSGF) of mesylate salt Form 2 of the compound A of Example 2 and esylate salt Form 1 of Example 6 in comparison with the free base Form A and with other salts was tested by means of manual experiment. The medium for simulated oral fluids was FaSSGF obtained from Biorelevant.com Ltd. The experiments were conducted for 60 minutes at 37 °C.
General preparation of salts: in a round-bottomed flask, 200 mg of compound A free base Form A according to Example 1 (0.52 mmol) were suspended in 5 ml of solvent and stirred at RT. Acetone was employed for bromide, ethanedisulfonate, malonate, sulfate, saccharinate, tosylate, orotate, besylate, hemisulfate, phosphate and tartrate salts; water was employed for chloride salt; ethyl formate was employed for maleate, oxalate, gentisicate, fumarate and mandelate salts; tetrahydrofuran was employed for camphorsulfonate and pamoate salts; isopropyl acetate was employed for 4-hydroxybenzoate and methanol for camphorate salt. The corresponding acid was added under stirring in equimolar amount (except for hemisulfate, added in 0.5 molar amount). After 1 hour the crystalline solid was isolated by filtration, washed with the corresponding solvent (2×1 ml) and dried under nitrogen for 2 hours.
The quantification of the dissolved amount was done by LC/UV system at different checkpoints up to 60 minutes. The saturation solution concentration was around 25-30 mg/ml. […] In a second experiment, the quantification was repeated with saturation solution concentration 170 mg/ml for the mesylate salt Form 2 and 100 mg/ml for the esylate salt Form 1. The results are reported in tables 8A, 8B, 8C, 8D and FIG. 28.

For another series, the system named is P2X3. The note with it: oral; cited from earlier work.
The conditions of series [2]: local delivery; cited from earlier work.
The conditions of series [3]: preclinical models; cited from earlier work.
The nature of series [4]: Comparative stability at 40 °C and 75% RH at open conditions (UPLC/UV and XRPD). The note with it: 40 °C/75% RH open. The format is physicochemical. As to the method: In a second experiment, approximately 100 mg of compound A mesylate salt Form 2 according to Example 2, free base Form A according to Example 1 and esylate salt Form 1 according to Example 6 were stored in three open amber glass vials covered with filter paper to simulate open conditions. The samples were stored in a stability chamber at 75% RH and 40 °C to compare their stability. At the time points 0, 28, 56, 84 days the corresponding samples were removed from the stability chambers. After conditioning at RT, the samples were analyzed by UPLC/UV and XRPD.

Series [5] is described as follows: Two-sector dissolution study (FaSSGF then FaSSIF), parachute effect. In kind it is physicochemical. The note with it: third experiment. As to the method:
The dissolution behaviour of mesylate salt Form 2 of compound A was studied in a two-sector model in comparison with free base Form A to evaluate a possible “spring-parachute effect”.
The parachute effect is observable in two-sector dissolution studies. A test compound is incubated with FaSSGF and its concentration is monitored over time. FaSSIF is then added to the solution whilst continuing the monitoring. The period of time in which the test compound remains in solution without or before precipitating refers to the supersaturation time and represents the parachute effect.
The experiment was conducted using DISS Profiler 6 Channel Pion. The free base Form A and mesylate salt Form 2 of compound A were each incubated in 8 ml of FaSSGF (pH 1.6) for 20 minutes at the concentration of 350 mg/250 ml. 16 ml of FaSSIF concentrated 1.5× (pH 6.5) was added with an incubation time of 180 minutes. The resulting target pH should be approximately 5-6. The experiment was conducted at 37 °C. The entire dissolution profile was monitored until the end of the experiment to evaluate a possible parachute effect, its duration and to evaluate the maximum solubility reached after the addition of FaSSIF.
A second experiment was conducted, with an additional step of adjusting the pH to 6.5 after FaSSIF addition. Both free base Form A and mesylate salt Form 2 of compound A were tested.
A third experiment was conducted on esylate salt Form 1 of compound A, using the same protocol of the second experiment, with free base Form A and mesylate salt Form 2 of compound A as controls. The experiment was aimed at evaluating comparatively a possible parachute effect of the esylate salt and its duration. Precipitation of the free base was observed after roughly 20 minutes, while precipitation of the esylate salt and mesylate salt were observed after 30 and 40 minutes respectively.

Series [6] in a line: Dynamic vapour sorption (DVS), hygroscopicity. The format is physicochemical. The conditions noted are these: between 20% and 80% RH. As to the method:
Moisture sorption/desorption data were collected on a TA Instruments Vapor Sorption Analyzer Q5000SA.
First step: sorption data was collected in the range 40% to 90% relative humidity (RH).
Second Step: desorption, sorption and desorption data were collected over a range of 0% to 90% RH at 10% RH intervals under a nitrogen purge. Samples were not dried prior to analysis. Equilibrium criteria used for analysis were less than 0.100% weight change in 20 minutes, with a maximum equilibration time of 1 hour if the weight criterion was not met. Data were not corrected for the initial moisture content of the samples. NaBr was used as humidity verification.
Moisture sorption/desorption data were also collected on a ProUmid SnS 23 equipped with a 23 autosampler following Method 1.
In the first step sorption data was collected in the range 0% to 90% RH. Samples were not dried prior to analysis.
In the second Step desorption, sorption and desorption data were collected over a range of 0% to 90% (RH) at 10% RH intervals under a nitrogen purge. Data were not corrected for the initial moisture content of the samples.

Where [7] appears, read: first experiment (saturation conc. around 25-30 mg/ml), 5 min.
The mark [8] stands for this setting: second experiment (saturation conc. 170 mg/ml mesylate, 100 mg/ml esylate), 0 min.

Each structure is given as a SMILES string. Converted amounts (≈) assume the structure as drawn. “Also recorded” adds a separate entry of the source. Structures can show the parent of a compound that is named as a salt.

Turning to `COc1cc(-c2ccc(F)cn2)cc2c(N[C@H](C)c3noc(C)n3)ncnc12` [fumarate], the Solubility (as a rule, the dissolved amount per volume that the medium holds) was 3290 µg/mL in series [1] (setting [7]); 3360 µg/mL in series [1] (first experiment, 10 min); 3350 µg/mL in series [1] (first experiment, 20 min); 3610 µg/mL in series [1] (first experiment, 40 min); 3580 µg/mL in series [1] (first experiment, 60 min); 550 µg/mL in series [1] (setting [8]). The Solubility is 4980 µg/mL in series [1] (second experiment, 15 min); 5760 µg/mL in series [1] (second experiment, 30 min); 5890 µg/mL in series [1] (second experiment, 60 min).
As for `COc1cc(C(C)C)c(Oc2cnc(N)nc2N)cc1S(N)(=O)=O` [AF-219], the “Hypersensitivity of the cough reflex” value with P2X3 was “dramatically reduced”.
For `Nc1ncnc2c1ncn2[C@@H]1O[C@H](COP(=O)(O)OP(=O)(O)OP(=O)(O)O)[C@@H](O)[C@H]1O` [ATP, Adenosine 5-TriPhosphate], the Cough and bronchospasm entry in series [2] is “initiates cough and bronchospasm”. Moreover, the “Citric acid-evoked and histamine-evoked cough” value in series [3] was “enhances citric acid-evoked and histamine-evoked cough”.
Regarding `COc1cc(-c2ccc(F)cn2)cc2c(N[C@H](C)c3noc(C)n3)ncnc12` [saccharinate], the Solubility in series [1] (setting [7]) was 900 µg/mL (≈ 2370 µM); in series [1] (first experiment, 10 min), 1030 µg/mL (≈ 2710 µM); in series [1] (first experiment, 20 min), 1090 µg/mL (≈ 2870 µM); in series [1] (first experiment, 40 min), 1080 µg/mL (≈ 2840 µM); in series [1] (first experiment, 60 min), 1020 µg/mL (≈ 2680 µM); in series [1] (setting [8]), 430 µg/mL (≈ 1130 µM). Also, the Solubility in series [1] (second experiment, 15 min) was 800 µg/mL (≈ 2100 µM); in series [1] (second experiment, 30 min), 870 µg/mL (≈ 2290 µM); in series [1] (second experiment, 60 min) it was 830 µg/mL (≈ 2180 µM).
As for `COc1cc(-c2ccc(F)cn2)cc2c(N[C@H](C)c3noc(C)n3)ncnc12` [camphorsulfonate], the Solubility in series [1] (setting [8]) is 510 µg/mL; in series [1] (second experiment, 15 min), 10510 µg/mL; in series [1] (second experiment, 30 min) it was 11840 µg/mL; in series [1] (second experiment, 60 min), 13450 µg/mL.
For the compound `COc1cc(-c2ccc(F)cn2)cc2c(N[C@H](C)c3noc(C)n3)ncnc12` [bromide], the Solubility in series [1] (setting [8]) was 720 µg/mL; in series [1] (second experiment, 15 min) it was 2520 µg/mL; in series [1] (second experiment, 60 min) it was 2880 µg/mL.
On the same counts, the results for `COc1cc(-c2ccc(F)cn2)cc2c(N[C@H](C)c3noc(C)n3)ncnc12` [chloride] are 690 µg/mL, 8630 µg/mL and 10870 µg/mL.
For `COc1cc(-c2ccc(F)cn2)cc2c(N[C@H](C)c3noc(C)n3)ncnc12` [mandelate], the Solubility in series [1] (setting [8]) was 1280 µg/mL (≈ 3370 µM); in series [1] (second experiment, 15 min) it was 10880 µg/mL (≈ 28600 µM); in series [1] (second experiment, 30 min), 9300 µg/mL (≈ 24400 µM); in series [1] (second experiment, 60 min), 10990 µg/mL (≈ 28900 µM).
As to `COc1cc(-c2ccc(F)cn2)cc2c(N[C@H](C)c3noc(C)n3)ncnc12` [oxalate], the Solubility is 90 µg/mL in series [1] (setting [7]); 90 µg/mL in series [1] (first experiment, 10 min); 80 µg/mL in series [1] (first experiment, 20 min); 90 µg/mL in series [1] (first experiment, 40 min); 90 µg/mL in series [1] (first experiment, 60 min); 1730 µg/mL in series [1] (setting [8]). For the same compound, the Solubility was 10710 µg/mL in series [1] (second experiment, 15 min); 11700 µg/mL in series [1] (second experiment, 30 min); 13870 µg/mL in series [1] (second experiment, 60 min).
In the case of `COc1cc(-c2ccc(F)cn2)cc2c(N[C@H](C)c3noc(C)n3)ncnc12` [pamoate], the Solubility in series [1] (setting [8]) is 30 µg/mL; in series [1] (second experiment, 15 min), 4890 µg/mL; in series [1] (second experiment, 60 min), 6520 µg/mL.
Consider `COc1cc(-c2ccc(F)cn2)cc2c(N[C@H](C)c3noc(C)n3)ncnc12` [esylate salt Form 1, (R)-6-(5-fluoropyridin-2-yl)-8-methoxy-N-(1-(5-methyl-1,2,4-oxadiazol-3-yl)ethyl)quinazolin-4-amine], for which the Stability entry in series [4] (84 days) was “surprisingly good stability during stressed storage”. Further, the “% area main peak (LC/UV)” value in series [4] (0 days) is reported as 99.9 % area. The Solubility is 24270 µg/mL in series [1] (first experiment (saturation conc. around 25-30 mg/ml), 5 min, listed as esylate Form 1, 5 min); 24740 µg/mL in series [1] (first experiment, 10 min, listed as esylate Form 1, 10 min); 24870 µg/mL in series [1] (first experiment, 20 min, listed as esylate Form 1, 20 min); 24760 µg/mL in series [1] (first experiment, 40 min, listed as esylate Form 1, 40 min); no less than 25000 µg/mL in series [1] (first experiment, 60 min); 24590 µg/mL in series [1] (first experiment, 60 min, listed as esylate Form 1, 60 min). For the same compound, the Solubility is 61300 µg/mL in series [1] (second experiment, 30 min, listed as esylate Form 1, 30 min) and 68460 µg/mL in series [1] (second experiment, 60 min, listed as esylate Form 1, 60 min). Also, the “Solubility compared to free base Form A” value in series [1] (60 minutes) is “consistently higher solubility than the free base Form A during the 60 minutes time”. For the same compound, in series [1] (first experiment, saturation conc. around 25-30 mg/ml), the Dissolution entry is given as “completely dissolved”. For the same compound, in series [5], the “Duration of the parachute effect compared to free base Form A” value was “longer duration of the parachute effect”. The compound also gave a Time of precipitation in series [5] (protocol of the second experiment) of 30 min.
Consider `COc1cc(-c2ccc(F)cn2)cc2c(N[C@H](C)c3noc(C)n3)ncnc12` [mesylate salt Form 6, (R)-6-(5-fluoropyridin-2-yl)-8-methoxy-N-(1-(5-methyl-1,2,4-oxadiazol-3-yl)ethyl)quinazolin-4-amine], for which, in series [6], the Hygroscopicity result is “No hygroscopicity was noted; also recorded: substantially no hygroscopicity” and the Total water uptake came out at 0.3%.
Regarding `COc1cc(-c2ccc(F)cn2)cc2c(N[C@H](C)c3noc(C)n3)ncnc12` [tosylate], the Solubility in series [1] (setting [8]) was 610 µg/mL; in series [1] (second experiment, 15 min), 4670 µg/mL; in series [1] (second experiment, 30 min), 4860 µg/mL; in series [1] (second experiment, 60 min) it was 4970 µg/mL.
On the same counts, the results for `COc1cc(-c2ccc(F)cn2)cc2c(N[C@H](C)c3noc(C)n3)ncnc12` [phosphate] are 210 µg/mL, 15210 µg/mL, 14850 µg/mL and 14320 µg/mL.
Regarding `COc1cc(-c2ccc(F)cn2)cc2c(N[C@H](C)c3noc(C)n3)ncnc12` [besylate], the Solubility in series [1] (setting [8]) is 1010 µg/mL; in series [1] (second experiment, 60 min) it was 21840 µg/mL.
On the same counts, the results for `COc1cc(-c2ccc(F)cn2)cc2c(N[C@H](C)c3noc(C)n3)ncnc12` [ethanedisulfonate] are 490 µg/mL and 1060 µg/mL.
